Laboratory results reported in US11648247B1, “Compositions and methods for the treatment of presbyopia” (Lenz Therapeutics, Inc., priority 2021, dated 2023).

What was measured:
eye [1] = assay: Comfort and tolerability after instillation (stinging, redness, ciliary spasm/brow ache, blur, dimming); type: in vivo, human; settings: for night vision / dimming: pH 7.5
Experimental: Ciliary spasms scores correspond to the following: 0=no discomfort; 0.5=slight sting; 1=noticeable squeeze/discomfort; 2=pain for less than 30 minutes; 3=pain for 1 hour or more; and 4=severe to intolerable pain.

[2] = Stability of aceclidine in storage (HPLC); type: physicochemical; settings: for Stability of Aceclidine: same composition
Experimental: 20 samples of the above composition were divided evenly and stored at 25° C. and 4° C. Prior to storage, initial concentrations of aceclidine were measured using […] (“HPLC”). The amount of aceclidine in each solution was calculated by the area under the principal peak compared to a reference solution of aceclidine. Samples were then subject to storage for 3 months. Aceclidine measurements were taken at 1, 2 and 3 months.

presbyopic subjects [3] = assay: Near and distance visual acuity after topical instillation (lines of improvement, onset, duration, efficacy index); type: in vivo, human
Experimental: As aceclidine is an […], the clinical effectiveness may vary with different ratios. For the present studies a nearly exact 50:50 ratio of stereoisomers was measured as best determined by polarimetry.
In brief, the score is calculated by multiplying the lines of improvement in near visual acuity by the number of hours the improvement lasts. For example, a score of: 5 is equal to +1 lines of improvement in near visual acuity for 5 hours; 10 is equal to +1.5 lines of improvement for 6.7 hours; 15 is equal to 2 lines of improvement for 7.5 hours; 20 is equal to 2.5 lines of improvement for 8 hours; 25 is equal to 3+ lines of improvement for 8.3 hours and 35 is equal to 3.75+ lines of improvement for 9 hours.
The subject instilled 2 drops of the above formulation in each eye as 1 single drop each eye and a second drop after 5 minutes.
2 subjects instilled 2 drops each of the above formulation in each eye about 5 minutes apart.
A 1.75% aceclidine in saline solution was formulated. One drop was instilled into each eye of a presbyopic subject. The visual acuity of the subject was tested both before and after instillation using a LogMAR chart.
Formulation AB#1 was instilled via 2-drops with a 5-minute interval in the eyes of a person. […] All near and distance vision with over-refraction was red-green adjusted to emmetropia. Near vision at 1 hour post instillation was measured. Further, duration to 20.40 vision was measured.

eye [4] = settings: brimonidine 0.20% w/v (Alphagan®) twice daily; cited from earlier work
pupil = settings: cited from earlier work
presbyopic subjects [5] = settings: pilocarpine with oxymetazoline, US 2014/0113946; cited from earlier work
[6] = post instillation, 1.75% aceclidine in saline solution

Question: With `CC(=O)OC1CN2CCC1CC2` (racemic) [aceclidine] as the compound, how does the “Stinging, lasting” value (eye [1]; 1.35% w/v aceclidine, Example 2) read?
Answer: 2 to 5 s

Question: And the “Stability of Aceclidine” value ([2]; 4° C., 1 month)?
Answer: 93%

Question: What about the “Stability of Aceclidine” value ([2]; 4° C., 2 months) of the same compound?
Answer: 92%

Question: What about the “Stability of Aceclidine” value ([2]; 4° C., 3 months) of the same compound?
Answer: 88%

Question: What about the “Stability of Aceclidine” value ([2]; 4° C., Initial) of the same compound?
Answer: 100%

Question: And the “Stability of Aceclidine” value ([2]; 25° C., 1 month)?
Answer: 92%

Question: And the “Stability of Aceclidine” value ([2]; 25° C., 2 months)?
Answer: 75%

Question: And the “Stability of Aceclidine” value ([2]; 25° C., 3 months)?
Answer: 50%

Question: And the “Stability of Aceclidine (amount vs reference)” value ([2]; 25° C., Initial, 1.50% aceclidine, 0.042% tropicamide, 5.5% polyoxyl 40 stearate, 2.5% mannitol, 3 mM citrate, pH 4.75)?
Answer: 100%

Question: And the near vision (presbyopic subjects [3]; FIG. 2, aceclidine in carrier: 5.5% HPβCD, 0.75% CMC, 0.25% NaCl, 0.01% BAK)?
Answer: < 20.20

Question: And the “LogMAR score at 1-meter distance” value (presbyopic subjects [3]; after instillation, 1.75% aceclidine in saline solution)?
Answer: −0.12 LogMAR

Question: What about the “LogMAR score at 45 centimeters distance” value (presbyopic subjects [3]; after instillation, 1.75% aceclidine in saline solution, one drop each eye, 0.50 prior) of the same compound?
Answer: 0.22 LogMAR

Question: And the “Noticeable degradation in reading distance acuity began” value (presbyopic subjects [3]; [6])?
Answer: 4 h

Question: What about the “improved reading distance acuity maintained” value (presbyopic subjects [3]; [6]) of the same compound?
Answer: 3.5 h

Question: What does the source list for `Brc1c(NC2=NCCN2)ccc2nccnc12` [brimonidine]?
Answer: rebound redness (eye [4]): 25 % of patients; tachyphylaxis of pupil modulation (pupil; brimonidine 0.20% w/v topically for night vision, within four weeks of use): ~100 % of treated subjects; duration of miotic effect (pupil; brimonidine, typically): about four hours; transiently induced miosis (pupil; brimonidine): 1.0-2.0 mm

Question: Which “time until full effect became diminished” value (presbyopic subjects [5]) does the source give for `CC[C@@H]1C(=O)OC[C@@H]1Cc1cncn1C` [pilocarpine] here?
Answer: about four hours

Question: For tropicamide, which “night vision / dimming” value (eye [1]; 0.035% w/v tropicamide in 1.55% w/v aceclidine composition) is on record?
Answer: slight dimming

Question: And the “night vision / dimming” value (eye [1]; 0.042% w/v tropicamide in 1.55% w/v aceclidine composition)?
Answer: normal indoor night vision

Question: What about the “effect on brow ache” value (eye [1]; tropicamide 0.01% w/v with aceclidine) of the same compound?
Answer: slightly reduce brow ache

Question: And the “effect on brow ache” value (eye [1]; tropicamide 0.014% w/v with aceclidine)?
Answer: reduce brow ache

Question: What about the “effect on brow ache” value (eye [1]; tropicamide 0.021% w/v with aceclidine) of the same compound?
Answer: further reduce brow ache

Question: What about the “effect on brow ache” value (eye [1]; tropicamide 0.030% w/v with aceclidine) of the same compound?
Answer: further reduce brow ache

Question: What about the “effect on brow ache” value (eye [1]; tropicamide from 0.028% to 0.060% w/v with aceclidine) of the same compound?
Answer: completely eliminate brow ache

Question: What about the “effect on brow ache” value (eye [1]; tropicamide from 0.04% to about 0.07% w/v with aceclidine) of the same compound?
Answer: completely eliminate brow ache
